Data as given in patent publication US9822414B2, “In vitro method for predicting in vivo genotoxicity of chemical compounds” (priority 2011, dated 2017).
Several values for one entry are separate records, joined by “and”; a condition that tells them apart may be missing. Identical values can stand only once. Like-named read-outs stand apart in the source and are kept apart here.

Assays:
[1] = test system: PWWP2B; assay: Gene expression of PWWP2B in HepG2 cells exposed to compound (microarray, log2 treatment:control ratio); type: cell-based, human
[2] = test system: rodents; details: cited from earlier work; for In vivo GTX: positive when at least one in vivo assay (MN, CA) positive, equivocal considered positive
[3] = test system: conventional in vitro genotoxicity assays; details: cited from earlier work; for Results in the conventional in vitro genotoxicity assays: see Table 5
[4] = test system: HepG2 cell; assay: Class prediction of in vivo genotoxicity by the method of the invention (Ames stratification plus three-gene expression in HepG2); details: for Prediction (class prediction results using the method of the invention): 62 compounds, three replicates, HepG2 24 h; for At least ⅔ genes +?: per single measurement, GTX when at least two out of three genes above reference value
[5] = test system: HepG2 cell
[6] = test system: Salmonella typhimurium; details: cited from earlier work
[7] = test system: C10orf65/HOGA1; assay: Gene expression of C10orf65/HOGA1 in HepG2 cells exposed to compound (microarray, log2 treatment:control ratio); type: cell-based, human; details: for Log2 treatment: control ratio C10orf65/HOGA1: 24 h exposure, Ames negative compounds, one line per replicate of triplicate experiments; for C10orf65/HOGA1: expression versus reference value, single measurement of three
[8] = test system: PNMA6A; assay: Gene expression of PNMA6A in HepG2 cells exposed to compound (microarray, log2 treatment:control ratio); type: cell-based, human; details: HepG2 cells; for Log2 treatment: control ratio PNMA6A: 24 h exposure, Ames negative compounds, one line per replicate of triplicate experiments; for PNMA6A: expression versus reference value, single measurement of three
[9] = test system: SLC40A1; assay: Gene expression of SLC40A1 in HepG2 cells exposed to compound (microarray, log2 treatment:control ratio); type: cell-based, human; details: HepG2 cells; for Log2 treatment: control ratio SLC40A1: 24 h exposure, Ames negative compounds, one line per replicate of triplicate experiments; for SLC40A1: expression versus reference value, single measurement of three
[10] = test system: LOC100505880; assay: Gene expression of LOC100131914/LOC100505880 in HepG2 cells exposed to compound (microarray, log2 treatment:control ratio); type: cell-based, human
[11] = standard in vivo genotoxicity designation

Compound | In vitro GTX [3] | Prediction (class prediction results using the method of the invention) [4] | Ames [6] | C10orf65/HOGA1 [7] | Standard [2, 11] | SLC40A1 [9] | Log2 treatment: control ratio C10orf65/HOGA1 [7] | Log2 treatment: control ratio PNMA6A [8] | PNMA6A [8] | Log2 treatment: control ratio SLC40A1 [9] | further results
OCCCl [2-Cl] | + |  |  |  |  |  |  |  |  |  | PWWP2B above or below the reference value [1]: + (Plus sign indicates a value above the reference value); Standard (in vivo genotoxicity designation) ([2]; in vivo): NGTX; Results in the conventional in vitro genotoxicity assays [3]: positive results
CC(=O)Nc1ccc2c(c1)Cc1ccccc1-2 [2AAF] | + | GTX+ | + |  |  |  |  |  |  |  | Log2 treatment: control ratio PWWP2B [1]: −0.045 and −0.14 and 0.042; Average result over three measurements [5]: GTX; Standard (in vivo genotoxicity designation) ([2]; in vivo): GTX; In vivo GTX [2]: +
Oc1cccc2cccnc12 [8HQ] | + | GTX+ | + |  |  |  |  |  |  |  | Log2 treatment: control ratio PWWP2B [1]: 0.014 and −0.165 and −0.069; Average result over three measurements [5]: GTX; Standard (in vivo genotoxicity designation) ([2]; in vivo): NGTX
Nc1ccccc1C(=O)O [AnAc] | + | NGTX | − | − (below the reference value) | NGTX | − (below the reference value) |  |  |  |  | Log2 treatment: control ratio C10orf65/HOGA1 ([7]; listed as AA): −0.045 and −0.061 and 0.002; Log2 treatment: control ratio PNMA6A ([8]; listed as AA): 0.167 and −0.628 and 0.562; Log2 treatment: control ratio SLC40A1 ([9]; listed as AA): −0.174 and −0.49 and 0.007
Clc1ccc(C(c2ccc(Cl)cc2)C(Cl)(Cl)Cl)cc1 [DDT] | − | NGTX | − |  | NGTX |  | −0.925 and 0.469 and −0.025 | −0.223 and 0.118 and −0.515 | − (below the reference value) | 0.685 and 0.118 and 0.493 | 
CCN(CC)N=O [DEN] | + |  |  |  |  |  |  |  |  |  | PWWP2B above or below the reference value [1]: + (Plus sign indicates a value above the reference value); Standard (in vivo genotoxicity designation) ([2]; in vivo): GTX; In vivo GTX [2]: +; LOC100505880 above or below the reference value [10]: + (Plus sign indicates a value above the reference value)
CCOP(=S)(OCC)Oc1cc(C)nc(C(C)C)n1 [DZN] | − | NGTX | − | − (below the reference value) | NGTX | + (above the reference value) | −1.12 and −0.738 and −1.077 | −0.352 and −0.624 and −0.03 | − (below the reference value) | 0.569 and 0.773 and 1.44 | 
OC[C@@H](O)[C@@H](O)[C@H](O)[C@H](O)CO [Dman] | − | NGTX | − | − (below the reference value) | NGTX | − (below the reference value) | 0.022 and −0.159 and 0.023 | −0.035 and 0.459 and 0.01 |  | 0.005 and −0.155 and −0.035 | 
C=CC(=O)OCC [EtAc, Ethylacrylate] | + | GTX | − | + (above the reference value) |  |  | 0.391 and 0.429 and 0.624 | 0.375 and 0.243 and 0.409 |  | −0.448 and 0.634 and 0.031 | Average result over three measurements [4]: GTX; At least ⅔ genes +? [4]: GTX; Standard ([2]; in vivo): NGTX
CCc1ccccc1 [EthylB] | + | NGTX | − | − (below the reference value) | NGTX | − (below the reference value) | −0.18 and 0.116 and −0.084 | 0.313 and 0.434 and 0.392 | + (above the reference value) | −0.23 and −0.141 and 0.295 | 
CCOc1ccc(NC(C)=O)cc1 [Phen] | + | NGTX | − | − (below the reference value) | NGTX | − (below the reference value) | 0.043 and 0.056 and 0.034 | −0.023 and 0.218 and −0.237 | − (below the reference value) | −0.646 and 0.127 and −0.048 | 
Oc1cccc(O)c1 [RR, Resorcinol] | + | GTX |  | + (above the reference value) | NGTX | + (above the reference value) |  |  | + (above the reference value) |  | Average result over three measurements [4]: GTX; Classification of NGTX compounds by the method of the invention (false positives) ([4]; in vivo NGTX compounds): misclassification; At least ⅔ genes +? [4]: GTX; Results in the conventional in vitro genotoxicity assays [3]: positive results; Ames ([6]; Ames results based on NTP data): −
CCC[CH2][Sn]([CH2]CCC)([CH2]CCC)[O][Sn]([CH2]CCC)([CH2]CCC)[CH2]CCC [TBTO] | + | GTX | − |  | GTX |  | 0.426 and 0.098 and 0.858 | 0.909 and 0.663 and 0.456 | + (above the reference value) | 0.604 and 1.649 and 0.208 | Average result over three measurements [4]: GTX; At least ⅔ genes +? [4]: GTX; In vivo GTX [2]: +
Clc1cc2c(cc1Cl)Oc1cc(Cl)c(Cl)cc1O2 [TCDD] | − | NGTX | − |  | NGTX | − (below the reference value) | −0.107 and 0.056 and 0.151 | −0.041 and 0.26 and 0.072 |  | 0.169 and −0.21 and 0.104 | 
CCCCCCCCCCCCCC(=O)O[C@@H]1[C@@H](C)[C@@]2(O)[C@@H](C=C(CO)C[C@]3(O)C(=O)C(C)=C[C@@H]23)[C@H]2C(C)(C)[C@]12OC(C)=O [TPA] | − | NGTX | − | − (below the reference value) | NGTX |  | 0.108 and −0.423 and 0.14 | −0.493 and −0.137 and −0.26 | − (below the reference value) | −0.327 and 1.338 and 0.199 | 
